These results are taken from PMC6792352, “Limited Chemical Structural Diversity Found to Modulate Thyroid Hormone Receptor in the Tox21 Chemical Library” (Environmental Health Perspectives, 2019).

This data set is described as follows: in vitro. To be noted: rat, gh3-tre-luc cells.

What is called CC50 is the concentration that lowers cell viability or growth by half. Low values mean greater toxicity to the cells, high ones lower toxicity to the cells.

Structures can show the parent of a compound that is named as a salt. Where only a bound is given, the exact number is not on record here.

Consider `CCCCN(CCCC)c1ccc(C(=O)c2ccccc2C(=O)O)c(O)c1` [2-[4-(Dibutylamino)-2-hydroxybenzoyl]benzoic acid], for which it took 46.7 µM to reach half-maximal cytotoxicity (AC50 (uM) modified / 1000) (CC50 at 24 h).

Under “AC50 (uM) modified / 1000”, `CCCCOC(=O)c1ccc(N)cc1` [Butyl 4-aminobenzoate] yielded a CC50 at 24 h above 50 µM.

For `CNC(=O)C(c1ccccc1)c1ccccc1` [N-methyl-alpha-phenylbenzeneacetamide], the CC50 at 24 h (AC50 (uM) modified / 1000) was above 90 µM.

In turn, `Nc1n[nH]c(N)n1` [Guanazole] came in with a CC50 at 24 h (AC50 (uM) modified / 1000) above 90 µM.

Molecule `O=C1OC(=O)c2ccccc21` [Phthalic anhydride] returned a CC50 at 24 h (AC50 (uM) modified / 1000) above 90 µM.

In the case of `O=C(NCc1cccnc1)Nc1ccc([N+](=O)[O-])cc1` [Pyrinuron], for the setting “AC50 (uM) modified / 1000, Tox21_110001=Tox21_302252, viability, 1 nM T3 present, 24 h”, half-maximal cytotoxicity (CC50 at 24 h) was put at 81.3 µM.

`C=CCN(CC=C)CC=C` [Triallylamine]: the CC50 at 24 h (AC50 (uM) modified / 1000) is above 90 µM.

As to `O=C(Nc1cccc2c(=O)cc(-c3nnn[nH]3)oc12)c1ccc(OCCCCc2ccccc2)cc1` [Pranlukast], the CC50 at 24 h (AC50 (uM) modified / 1000) is above 50 µM.

`CC(=O)Nc1ccc(S(N)(=O)=O)cc1` [4'-Sulfamylacetanilide]: the CC50 at 24 h (AC50 (uM) modified / 1000) was above 90 µM.

In the case of `CC(C)c1ccc(CO)cc1` [4-Isopropylbenzyl alcohol], under “AC50 (uM) modified / 1000”, the CC50 at 24 h was above 90 µM.

For the setting “AC50 (uM) modified / 1000”, `C#C[C@]1(O)CC[C@H]2[C@@H]3CCC4=CC(=O)CC[C@@H]4[C@H]3CC[C@@]21C` [Norethindrone] yielded a CC50 at 24 h of 59.2 µM.

In the case of `c1ccc2c(c1)Cc1ccccc1-2` [Fluorene], the cytotoxic concentration (CC50) at 24 h (AC50 (uM) modified / 1000) was above 90 µM.

On to `CCC(=O)C1CC(C(C)C)CC=C1C` (centres unmarked) [1-(5-Isopropyl-2-methyl-cyclohex-2-enyl)-propan-1-one], for which, under “AC50 (uM) modified / 1000”, the CC50 at 24 h is above 90 µM.

Molecule `Fc1ccc(Br)cc1` [1-Bromo-4-fluorobenzene] registered a CC50 at 24 h (AC50 (uM) modified / 1000) above 90 µM.

Regarding `CCOC(=O)CCCCCCCCC(=O)OCC` [Diethyl decanedioate], the CC50 at 24 h (AC50 (uM) modified / 1000) was above 90 µM.

Consider `C[C@](N)(Cc1ccc(O)cc1)C(=O)O` [Metyrosine], for which the 50% cytotoxic concentration (CC50) at 24 h (AC50 (uM) modified / 1000) is above 50 µM.

Under “AC50 (uM) modified / 1000, Tox21_110001=Tox21_201783, viability, 1 nM T3 present, 24 h”, `C/C=C/c1ccc2c(c1)OCO2` [Isosafrole] showed a CC50 at 24 h above 90 µM.

As to `COC(=O)CC(C(C)=O)C(=O)OC` (centres unmarked) [Dimethyl acetylsuccinate], the CC50 at 24 h (AC50 (uM) modified / 1000) is above 90 µM.

For the molecule `Cn1c(N)nc2nc[nH]c2c1=O` [1-Methylguanine], under “AC50 (uM) modified / 1000”, the CC50 at 24 h was above 90 µM.

In the case of `O=C(Cl)c1ccc(C(=O)Cl)cc1` [1,4-Benzenedicarbonyl dichloride], the CC50 at 24 h (AC50 (uM) modified / 1000) is above 90 µM.

The molecule `CCC(O)C(C)(C)C` (centres unmarked) [2,2-Dimethyl-3-pentanol] registered a CC50 at 24 h (AC50 (uM) modified / 1000) above 90 µM.

`CCCCCCCCOC(=O)c1ccccc1C(=O)OCCCCCCCC` [Di-n-octyl phthalate] came in with a CC50 at 24 h (AC50 (uM) modified / 1000) above 90 µM.

The molecule `O=C(O)[C@@H]1C[C@H](CP(=O)(O)O)CCN1` (racemic) [Selfotel] returned a CC50 at 24 h (AC50 (uM) modified / 1000) above 50 µM.

The molecule `CCOC(=O)NCCC[Si](OCC)(OCC)OCC` [Ethyl [3-(triethoxysilyl)propyl]carbamate] displayed a CC50 at 24 h (AC50 (uM) modified / 1000) above 90 µM.

For the molecule `CCCN(CCC)C(=O)CN` [C.I. Solvent Black 5], where the note is “AC50 (uM) modified / 1000”, it took 3.55 µM to reach half-maximal cytotoxicity (CC50 at 24 h).

As to `N#CCCC#N` [Succinonitrile], under “AC50 (uM) modified / 1000, Tox21_110001=Tox21_200635, viability, 1 nM T3 present, 24 h”, the CC50 at 24 h was above 90 µM.

Take `CCCCC(CC)COC(=O)C(C#N)=C(c1ccccc1)c1ccccc1` (centres unmarked) [2-Ethylhexyl-2-cyano-3,3-diphenylacrylate]: for the setting “AC50 (uM) modified / 1000”, the CC50 at 24 h is above 90 µM.

Take `CC(C)c1cc(C(C)C)cc(C(C)C)c1` [1,3,5-Triisopropylbenzene]: the CC50 at 24 h (AC50 (uM) modified / 1000) was above 90 µM.

`OCCOCCOCCO` [Triethylene glycol]: where the note is “AC50 (uM) modified / 1000”, the CC50 at 24 h is above 100 µM.

Under “AC50 (uM) modified / 1000”, `O=C(COc1ccc(Cl)cc1)N1CCN(Cc2ccc3c(c2)OCO3)CC1` [Fipexide hydrochloride] came in with a cytotoxic concentration (CC50) at 24 h of 66.7 µM.

In turn, `O=C(C(Cl)(Cl)Cl)C(Cl)(Cl)Cl` [Hexachloroacetone] gave a CC50 at 24 h (AC50 (uM) modified / 1000) above 90 µM.

Turning to `O=NN1CCN(N=O)CC1` [Dinitrosopiperazine], under “AC50 (uM) modified / 1000”, the half-maximal cytotoxic concentration (CC50) at 24 h is above 90 µM.

`CCN[C@@H]1C[C@H](N)[C@@H](O[C@H]2OC(CN)=CC[C@H]2N)[C@H](O)[C@H]1O[C@H]1OC[C@](C)(O)[C@H](NC)[C@H]1O` [Netilmicin sulfate]: the CC50 at 24 h (AC50 (uM) modified / 1000) was above 50 µM.

`COc1cc(C(C)(C)C)c(O)c(C(C)(C)C)c1` [2,6-Di-tert-butyl-4-methoxyphenol] had a CC50 at 24 h (AC50 (uM) modified / 1000) of 48.1 µM.

`CC(C)Nc1nc(N)nc(Cl)n1` [Deethylatrazine] returned a CC50 at 24 h (AC50 (uM) modified / 1000) above 90 µM.

`CCOc1ccc2c(c1)C(C)CC(C)(C)N2` (centres unmarked) had a CC50 at 24 h (AC50 (uM) modified / 1000) above 90 µM.

For the setting “AC50 (uM) modified / 1000”, `CCCCCCCCCCCCCCCCCC(=O)OCC(C)O` (centres unmarked) [Octadecanoic acid, monoester with 1,2-propanediol] came in with a CC50 at 24 h of 20.7 µM.

Under “AC50 (uM) modified / 1000”, `C=C(C)C1CC=C(C)C(=O)C1` (racemic) [dl-Carvone] yielded a CC50 at 24 h above 90 µM.

`COc1cc2c(cc1OC)[C@H]1CC(=O)[C@H](CC(C)C)CN1CC2` (racemic) [Tetrabenazine] displayed a 50% cytotoxic concentration (CC50) at 24 h (AC50 (uM) modified / 1000) above 50 µM.

`CC(=O)OC(C)(C)C` [tert-Butyl acetate] showed a CC50 at 24 h (AC50 (uM) modified / 1000) above 90 µM.

Molecule `COc1ccc(N)c(OC)c1` [2,4-Dimethoxyaniline hydrochloride] came in with a half-maximal cytotoxic concentration (CC50) at 24 h (AC50 (uM) modified / 1000) above 50 µM.

Take `COc1nn(C(=O)NS(=O)(=O)c2ccccc2OC(F)(F)F)c(=O)n1C` [Flucarbazone-sodium]: the CC50 at 24 h (AC50 (uM) modified / 1000) was above 90 µM.

Consider `C[C@]12C/C(=C/O)C(=O)C[C@@H]1CC[C@@H]1[C@@H]2CC[C@@]2(C)[C@H]1CC[C@]2(C)O` [Oxymetholone], for which the CC50 at 24 h is above 50 µM (AC50 (uM) modified / 1000, Tox21_110001=Tox21_111131, viability, 1 nM T3 present, 24 h) and 67.3 µM (AC50 (uM) modified / 1000, Tox21_110001=Tox21_200071, viability, 1 nM T3 present, 24 h).

As to `c1ccc(CN2CCNCC2)cc1` [1-Benzylpiperazine difumarate], for the setting “AC50 (uM) modified / 1000, Tox21_110001=Tox21_112882, viability, 1 nM T3 present, 24 h”, the CC50 at 24 h is above 200 µM.

Consider `CN(C)c1ccccc1` [N,N-Dimethylaniline], for which the CC50 at 24 h (AC50 (uM) modified / 1000, Tox21_110001=Tox21_201813, viability, 1 nM T3 present, 24 h) was above 90 µM and the CC50 at 24 h (AC50 (uM) modified / 1000, Tox21_110001=Tox21_300036, viability, 1 nM T3 present, 24 h) was above 100 µM.

Take `OCC=CCO` [2-Butene-1,4-diol]: the CC50 at 24 h (AC50 (uM) modified / 1000) was above 90 µM.

Consider `CC[C@H]1OC(=O)[C@H](C)[C@@H](O[C@H]2C[C@@](C)(OC)[C@@H](O)[C@H](C)O2)[C@H](C)[C@@H](O[C@@H]2O[C@H](C)C[C@H](N(C)C)[C@H]2O)[C@](C)(O)C[C@@H](C)C(=O)[C@H](C)[C@@H](O)[C@]1(C)O` [Erythromycin], for which, where the note is “AC50 (uM) modified / 1000”, the CC50 at 24 h was above 70 µM.

Take `CN(C1CCCCC1)S(=O)(=O)c1ccccc1N` [2-Amino-N-cyclohexyl-N-methylbenzenesulfonamide]: where the note is “AC50 (uM) modified / 1000”, the CC50 at 24 h is above 90 µM.

For the molecule `CC(=C(CCO)SSCC1CCCO1)N(C=O)Cc1cnc(C)nc1N` (stereo in doubt) [Fursultiamine hydrochloride], the CC50 at 24 h (AC50 (uM) modified / 1000) is above 50 µM.

As to `COCCOC(=O)C1=C(C)NC(C)=C(C(=O)OC/C=C/c2ccccc2)C1c1cccc([N+](=O)[O-])c1` (centres unmarked) [Cilnidipine], under “AC50 (uM) modified / 1000”, the midpoint of cytotoxicity, the CC50 at 24 h, lay at 12.4 µM.

On to `COP(=O)(OC)O/C(=C\Cl)c1cc(Cl)c(Cl)cc1Cl` [Z-Tetrachlorvinphos], for which the CC50 at 24 h (AC50 (uM) modified / 1000, Tox21_110001=Tox21_301751, viability, 1 nM T3 present, 24 h) is above 90 µM.

With `c1cc(OCC2CO2)cc(OCC2CO2)c1` (centres unmarked) [Diglycidyl resorcinol ether], for the setting “AC50 (uM) modified / 1000”, the CC50 at 24 h was determined as 17.3 µM.

Where the note is “AC50 (uM) modified / 1000, Tox21_110001=Tox21_201837, viability, 1 nM T3 present, 24 h”, `CN(C)P(=O)(N(C)C)N(C)C` [Hexamethylphosphoramide] displayed a half-maximal cytotoxic concentration (CC50) at 24 h above 90 µM.

Under “AC50 (uM) modified / 1000”, `CCN(CC)CCNC(=O)COc1ccc(Cl)cc1` [Clofexamide] yielded a CC50 at 24 h above 50 µM.

For the molecule `O=S1(=O)OC(c2ccc(O)cc2)(c2ccc(O)cc2)c2ccccc21` [Phenol Red sodium salt], for the setting “AC50 (uM) modified / 1000”, it took 46.9 µM to reach half-maximal cytotoxicity (CC50 at 24 h).

As to `CC1(COc2ccc(CC3SC(=O)NC3=O)cc2)CCCCC1` (centres unmarked) [Ciglitizone], the CC50 at 24 h (AC50 (uM) modified / 1000) was determined as 26.4 µM.

In the case of `C=C1CC[C@H]2C[C@@H]1C2(C)C` [beta-Pinene], under “AC50 (uM) modified / 1000”, the 50% cytotoxic concentration (CC50) at 24 h is above 90 µM.
